# Measurements published in patent publication US12030908B2, “Antimicrobial compounds, compositions, and uses thereof” (Lakewood Amedex, Inc., priority 2017, dated 2024).
# Where two headings read alike, the source gives them in different places.
# Test system: methicillin resistant Staphylococcus aureus (USA300)
# Format: in vivo, SKH-1 hairless mice
# Conditions: for decrease in CFU burden: 6 hours post challenge
# Description: SKH-1 hairless mice have the outer layer of skin cells removed by stripping with 7 applications and removals of surgical tape. Immediately following tape stripping, mice receive a topical inoculation of methicillin resistant Staphylococcus aureus (USA300) at a targeted challenge of 6.0 log10 CFU. Four hours following challenge, mice are treated with test articles or vehicle controls, and at two hours following treatment, mice have skin harvested for CFU burden enumeration.
# SKH-1 mice are obtained from Charles River Laboratories. The age of the mice on Day 0 is approximately 6-8 weeks. Only female mice are selected for the study. Animals are handled in accordance with AUP number TP-18. Mice are housed in solid-bottom micro-isolator cages on stainless steel racks. Animals are fed irradiated Teklad Global 2918 Rodent Diet and water ad libitum. Bedding is provided in the form of irradiated Teklad ⅛″ corn cob bedding 7902. Animals are maintained in a bioBubble® Clean Room which provides H.E.P.A filtered air into the bubble environment at 100 complete air changes per hour. The environment is controlled to a temperature range of 74°±5° F. and a humidity range of 30-70%. Fluorescent lighting provides illumination for 12 hours per day. Mice are acclimated for a minimum of 24 hours prior to study start. The animals are observed for general health and acceptability for use in this study. Only animals deemed healthy are included in this study.
# On Day 0 immediately prior to infection, each mouse is anesthetized using isoflurane and the dorsal area receives 7 applications and removals of Nexcare™ (3M) surgical tape in order to remove the outermost epidermal layer of skin.
# The challenge microorganism is prepared. Methicillin resistant Staphylococcus aureus (USA300) is grown overnight at 37° C. at ambient atmosphere trypticase soy agar plates supplemented with 5% sheep blood cells. The culture is aseptically swabbed and transferred to tubes sterile water until optical density reaches approximately 0.75 at 600 nm. The cultures are diluted to provide challenge inoculate of 6.0 log10 CFU per mouse in a volume of 100 μL. Inoculum count is estimated before inoculation by optical density and confirmed after inoculation by dilution and back count.
# On Day 0 at 0 hours, animals are anesthetized using isoflurane, brought to a surgical plane, and infected with bacteria via topical application, spread in the tape stripped area of approximately 0.75″×0.75″. Challenge is allowed to dry slightly before mice are brought out of anesthesia.
# The test articles are prepared in a manner to minimize endotoxin and bacterial contamination. A 10% (100 mg/mL) solution of Nu-8 is prepared in 0.9% sterile saline. A 20% Nu-8 solution for 50/50 mixture in a hydrogel vehicle (for 10% final Nu-8 concentration) is made using sterile water. Citric acid is used to adjust the solutions to pH 3.5. The test articles are stored at 4° C.
# A 0.9% sterile saline adjusted to pH 3.5 with citric acid is prepared as a vehicle/negative control and stored at room temperature. A hydrogel vehicle adjusted to pH 3.5 with citric acid is prepared as another vehicle/negative control. The hydrogel vehicle is prepared by mixing equal volumes of hydrogel and 0.9% sterile saline with final pH of the mixture adjusted to pH 3.5.
# At exactly four hours following challenge, mice in Groups 2-5 receive a topical application of Nu-8 (in either saline or hydrogel vehicle), saline vehicle, or gel vehicle, in a volume of […] spread on the dorsal area previously stripped and inoculated with bacteria. […] Mice are housed individually following treatment until harvest time.
# Mice are observed at least twice daily during the study period and are randomly assigned to experimental groups as shown in TABLE 10. At the time indicated in TABLE 10, mice are humanely euthanized via CO2 overexposure. Mice are harvested at 6 hours post challenge (2 hours post-treatment). […]
smiles,measurement,setting,value
"CCCCOP(=O)(O)OC[C@H]1O[C@@H](n2ccc(N)nc2=O)C[C@@H]1OP(=O)(O)OCCCC [Nu-8, sodium ((2R,3S,5R)-5-(4-amino-2-oxopyrimidin-1(2H)-yl)-3-((butoxyoxidophosphor-yl)oxy)tetrahydrofuran-2-yl)methyl butyl phosphate]",decrease in CFU burden,"10% Nu-8 in hydrogel pH 3.5, topical",~1.0 log10 reduction
same,decrease in CFU burden,"10% Nu-8 in saline pH 3.5, topical",~1.0 log10 reduction
same,percentage reduction compared to the controls (FIG. 3),Nu-8 gel,87%
same,colony forming units (FIG. 1),"Nu-8 hydrogel, two hours post treatment","approximately 40,000 CFU per square millimeter"
same,reduction in bacteria vs saline and gel controls,"Nu-8 in saline or hydrogel, two hours post treatment",ten-fold
same,colony forming units (FIG. 1),"Nu-8 in saline, two hours post treatment","approximately 30,000 CFU per square millimeter"
same,percentage reduction compared to the controls (FIG. 3),Nu-8 saline,90%
same,acute adverse events associated with the treatments,"topical, 10% Nu-8 in saline or hydrogel",None of the study subjects displayed any acute adverse events
